This test addresses T1, HIV-1 integrase multimerization (Human immunodeficiency virus type 1 group M subtype B, UniProt P12497).
T1 construct: His-tagged and FLAG-tagged integrase (donated by professor Mamuka Kvaratskhelia); gift of Prof; Mamuka Kvaratskhelia (University of Colorado Denver Anschutz Medical Campus)
Kind of test: HTRF assay validating activators of HIV-1 integrase multimerization (in vitro binding assay). The format is biochemical. Conditions: His-tagged and FLAG-tagged integrase 20 nM each; time-resolved FRET; 8-point 1:3 dilution from 53.7 μM, triplicate; active when EC50 < 5 µM. On the procedure: An assay was carried out as previously described to experimentally validate the compounds [45] identified by LBS as activators of HIV-1 integrase multimerization. Briefly, His-tagged and FLAG-tagged integrase (donated by professor Mamuka Kvaratskhelia at university of Colorado Denver Anschutz Medical Campus) were separately prepared with final concentration of 20 nM. An antibody mixture was prepared with 1.25 μg/mL of anti-6xHis-XL665 antibody (Cisbio) and 58 ng/mL of anti-FLAG-EuCryptate antibody (Cisbio), respectively, in Tris-HCl buffer. His-tagged and FLAG-tagged Integrase were mixed in 25 mM Tris-HCl (pH 7.4) buffer containing 150 mM NaCl, 2 mM MgCl2, 0.1% Nonidet P40, and 1 mg/mL BSA. 35 μL of integrase mixture was added to each well. Next, 270 nL of compounds (each in triplicate using 8-point 1:3 dilution series starting at a maximum nominal test concentration of 53.7 μM) were distributed to appropriate wells. Dimethyl sulfoxide was used as low-control, and BIB-II (donated by professor Mamuka Kvaratskhelia at university of Colorado Denver Anschutz Medical Campus) was used as high-control reference compound. After 3 h of incubation, 15 μL of antibody mixture was added to the plates. After incubation at room temperature for 2.5 h, the time-resolved fluorescence energy transfer signal was measured by the microplate reader (SpectraMax M5, Molecular Devices, LLC., San Jose, CA, USA) by exciting the plates (384 well, Corning) at 340 nm and monitoring well fluorescence at 618 nm and 671 nm with the microplate reader. All the test compounds were bought from ChemDiv (San Diego, CA, USA).
In general terms: TR-FRET usually uses a lanthanide donor and a delayed reading to cut background.
The term EC50 denotes the midpoint of the concentration-response curve. A high value points to a need for much substance. `O=c1c2cc(O)c(O)cc2oc2cc(O)c(OC3OC(CO)C(O)C(O)C3O)c(O)c12` (stereo not shown) [compound 46397461]: it took 1260 nM to reach a half-maximal effect (EC50).

`O=c1c(OC2OC(CO)C(O)C(O)C2O)c(-c2ccc(O)c(O)c2)oc2cc(O)cc(O)c12` (stereo not shown) [compound 5378597] registered an EC50 of 1360 nM.

For `O=c1cc(-c2ccc(O)c(O)c2)oc2cc(OC3OC(CO)C(O)C(O)C3O)cc(O)c12` (stereo not shown) [compound 5291488], a half-maximal effect (EC50) was put at 3620 nM.

The molecule `O=C(NN=Cc1ccccc1F)c1cc(O)c(O)c(O)c1` [compound 3656702] yielded a half-maximal effective concentration (EC50) of 4880 nM.

`COc1cccc(/C=N/Nc2nc3c(=O)[nH]c(N)nc3n2C2OC(CO)C(O)C2O)c1O` (stereo not shown) [Pubchem CID 135427812] registered an EC50 of 710 nM.

In turn, `O=C(NNC1OC(CO)C(O)C(O)C1O)c1ccc(O)cc1` (stereo not shown) [compound 4137880] displayed a 50% effective concentration (EC50) of 1260 nM.

With `COc1cccc(C=NNc2nc3c(=O)[nH]c(N)nc3n2C2OC(CO)C(O)C2O)c1O` (stereo not shown) [compound 135427812], the half-maximal effective concentration (EC50) came to 710 nM.
